# Reference: a melting point compilation (Tetko et al.)
smiles,measurement,value
O=C(Nc1c(Cl)cc(Cl)cc1Cl)C(C(F)(F)F)C(F)(F)F,melting point,218 to 220 °C
NN=C(c1ccccc1)c1ccccc1,melting point,96.5 °C
O=C1/C(=C/c2ccccc2O)SC(=S)N1CN1CCOCC1,melting point,166 °C
CCOC(=O)c1c(N)sc2c1CCN(C(=O)OC(C)(C)C)C2,melting point,153 °C
Cc1c(F)c(F)c(C)c(F)c1F,melting point,36 °C
CC12CCC3c4ccc(OC(=O)c5ccccc5)cc4CCC3C1CCC2O (configuration not stated),melting point,196 °C
CCCCOC(=O)c1ccccc1C(=O)OCc1ccccc1,melting point,230 °C
Fc1c(F)c(F)c(P(c2c(F)c(F)c(F)c(F)c2F)c2c(F)c(F)c(F)c(F)c2F)c(F)c1F,melting point,117 °C
CCOC(OCC)C(N)=S,melting point,91 to 94 °C
C(=Cc1ccc2ccc3ccccc3c2c1)c1ccc2ccccc2c1,melting point,213 °C
NC(=O)C[C@H](NC(=O)OCC1c2ccccc2-c2ccccc21)C(=O)O,melting point,180 °C
CCN(CC)C(=O)CSc1ccc(Cl)nn1,melting point,98 °C
CC(=O)NCCc1ccccc1[N+](=O)[O-],melting point,94 °C
Cc1ccccc1C=CC(=O)O,melting point,175 to 177 °C
Nc1snnc1-c1ccccc1,melting point,144 to 147 °C
O=[N+]([O-])c1cccc(Oc2ccccn2)c1,melting point,93 to 95 °C
Nc1noc2ccccc12,melting point,110 to 112 °C
O=Cc1cc(F)ccc1Br,melting point,54 °C
CC12CCC(=O)C=C1CCC1C3CCC4(CCC(=O)O4)C3CCC12C (configuration not stated),melting point,158 °C
O=Cc1ccc([N+](=O)[O-])cc1[N+](=O)[O-],melting point,72 °C
C#Cc1ccc(C)cc1,melting point,21 °C
CC(=O)c1c(-c2ccccc2)noc1C,melting point,55 to 58 °C
Cc1cc(O)nc(N)n1,melting point,300 °C
O=C(Cl)c1ccc2nsnc2c1,melting point,111 °C
CCCCC=CC=CC=CCCCCCCCC(=O)O,melting point,71.5 °C
CC(=O)N1CCNCC1,melting point,32 °C
N#C/C(=N\Nc1cc(Cl)c(Cl)cc1Cl)c1nc(-c2ccc(Cl)cc2)cs1,melting point,176 °C
N#Cc1ccc(N2CCCNCC2)nc1,melting point,63 to 65 °C
NCCNc1ccc([N+](=O)[O-])cn1,melting point,126 to 128 °C
Fc1cccc(CBr)c1C(F)(F)F,melting point,42 °C
COc1ccc(C=CNC=O)cc1,melting point,132 °C
Ic1ccc(Cn2cccn2)cc1,melting point,80 to 81 °C
COc1ccc(CC(=O)O)c(OC)c1OC,melting point,99 to 101 °C
O=[N+]([O-])c1cccc(SSc2cccc([N+](=O)[O-])c2)c1,melting point,84 °C
CCCCCc1cc(O)c2c(c1)OC(C)(C)C1CCC(C)=CC21 (configuration not stated),melting point,200 °C
CC(=O)Oc1ccc(C)c(C)c1,melting point,22 °C
CC1=C(C(=O)OC(C)C)C(c2ccco2)NC(=S)N1 (configuration not stated),melting point,191 °C
CC(C)(C)OC(=O)N1CCN(CCO)CC1,melting point,39 to 43 °C
CC(=Cc1ccccc1)CC(N)=O,melting point,133 °C
COC(=O)c1ccc(C(=O)OC)o1,melting point,112 °C
O=C(O)CN(CC(=O)O)c1ccccc1,melting point,156 to 160 °C
OC(c1c(F)c(F)c(F)c(F)c1F)c1c(F)c(F)c(F)c(F)c1F,melting point,76 to 80 °C
Cc1ccc(I)cc1F,melting point,23 °C
COC1=C(OC)C(C(COS(C)(=O)=O)OS(C)(=O)=O)OC1=O (configuration not stated),melting point,77 to 79 °C
COc1ccc(-c2csc(/C(C#N)=C\c3cccs3)n2)cc1,melting point,140 °C
COC(=O)c1ccc(CS(=O)(=O)Cl)cc1,melting point,116 to 117 °C
CC1(C)N[C@H](C(=O)O)Cc2c1[nH]c1ccccc21,melting point,227 to 228 °C
CCc1ccccc1NC(=O)c1cccc2ccccc12,melting point,175 °C
CC1=CC=C(C(C)C)CC1,melting point,-31.1 °C
Clc1ccc(SCSc2ccc(Cl)cc2)cc1,melting point,47 °C
O=S(=O)(Cl)C(Cl)(Cl)Cl,melting point,140 °C
Cc1ccc(O)cn1,melting point,169 °C
CC(=NO)c1ccn(S(=O)(=O)c2ccccc2)c1,melting point,162 to 165 °C
CC(=O)c1ccc(-c2c(Cl)cc(Cl)cc2Cl)o1,melting point,108 °C
CNc1ccc2cc3ccc4c(c3nc2c1CO)COCN4S(C)(=O)=O,melting point,205 °C
"COC1C(O)C(O)C(O)C(O)C1O (single isomer, unassigned; (-))",melting point,190 to 198 °C
Clc1cc2oc3cc(Cl)c(Cl)cc3c2cc1Cl,melting point,227 °C
Cn1ncc(Br)c1N,melting point,104 to 105 °C
CCOC(=O)C(C#N)=C(N)c1cc2cc(Br)cc(Br)c2oc1=O,melting point,258 to 260 °C
CC(OC(=O)c1ccc([N+](=O)[O-])cc1)c1cccc(C(C)OC(=O)c2ccc([N+](=O)[O-])cc2)c1 (configuration not stated),melting point,139 to 145 °C
C=CCOC(=O)Nc1cc(O)cc(C(=O)O)c1,melting point,194 to 197 °C
O=[N+]([O-])c1cc(Cl)ccc1Sc1ccccc1,melting point,82 to 84 °C
COc1cc(Br)cc(Br)c1,melting point,41.5 °C
COc1cc(C(=O)c2cccc(C)c2)c([N+](=O)[O-])cc1OC,melting point,121 °C
C=CCSc1nnc(-c2cc(Br)cc(Br)c2O)n1N,melting point,162 °C
NC(=S)NCCN1CCCCC1,melting point,107 to 110 °C
O=S(O)c1ccccc1,melting point,84 °C
CCN1CCN(c2cc3c(cc2F)c(=O)c(C(=O)O)cn3C2CC2)CC1,melting point,220 °C
O=CCCCCC=O,melting point,-8 °C
Nc1ccccc1N1CCOCC1,melting point,98 to 99 °C
COC(=O)C1=C(C)NC(=O)NC1c1cccc(OC)c1O (configuration not stated),melting point,208 °C
CN(CC(=O)O)C(=O)COC(=O)c1ccccc1,melting point,106 °C
Nc1cc(Br)cnc1Cl,melting point,131 °C
NNC(=O)c1ccc(O)cc1O,melting point,241 °C
Nc1ccccc1Cn1cncn1,melting point,56 to 57 °C
O=C(Cl)c1cccnc1Oc1ccccc1,melting point,90 to 91 °C
O=C1C=C(NCc2cccnc2)C(=O)c2ccccc21,melting point,209 °C
CCCCCCCCCCCCCCCC(=O)OCCO,melting point,51 °C
COc1ccc(-c2nn3c(COc4ccccc4)nnc3s2)cc1OC,melting point,106 °C
S=C=Nc1ccc2nsnc2c1,melting point,96 to 97 °C
ON=C1CCCc2c1nc(-c1ccccc1)n2O,melting point,270 to 272 °C
CC(CCC(=O)O)C1CCC2C(C(=O)O)C(C3(C)CCCCC3C(=O)O)CCC12C (configuration not stated),melting point,265 to 267 °C
COC(=O)c1sccc1OC,melting point,62 °C
Cc1ccc(CC=O)cc1,melting point,40 °C
O=C1C=C(Nc2cccc(O)c2)c2ccccc2C1=O,melting point,300 °C
Cc1ccc(F)cc1NC(N)=S,melting point,120 to 123 °C
COc1ccc(OC)c2c(=O)c(=O)c12,melting point,191 °C
NC(=O)c1ncccc1O,melting point,195 °C
CC12CCCC1C1CCC3CC(O)CCC3(C)C1CC2 (configuration not stated),melting point,148 °C
O=[N+]([O-])c1ccc(CBr)cc1,melting point,99 °C
Cc1n[nH]c2c(=O)n(-c3ccccn3)c(C)nc12,melting point,222 to 224 °C
COc1cc2nc(N3CCN(C(=O)c4ccco4)CC3)nc(N)c2cc1OC,melting point,285 °C
FC(F)(F)C(F)(Br)C(F)(F)Br (configuration not stated),melting point,-95 °C
O=C(CBr)c1cccc(F)c1,melting point,34 to 35 °C
O=C(O)/C=C/c1ccc(I)o1,melting point,145 °C
O=c1ccoc2ccccc12,melting point,59 °C
Nc1cccc2c1Cc1ccccc1-2,melting point,126 °C
Cc1c2ccccc2c(C)c2c1ccc1ccccc12,melting point,122 °C
NC(=O)CN1CCCC1=O,melting point,152 °C
CCCCCCCCCCCCCC(=O)Nc1ccccc1,melting point,82 to 87 °C
CCNCCS(=O)(=O)c1ccc(C)cc1,melting point,42 to 45 °C
CC12C=CC(=O)C=C1CCC1C3CC(O)C(O)(C(=O)CO)C3(C)CC(O)C12F (configuration not stated),melting point,269 °C
OC1CCCCCC1,melting point,2 °C
N=C(N)NC(=N)NCCc1ccccc1,melting point,176 °C
Cc1nn(C)c(C)c1S(=O)(=O)Cl,melting point,39 to 42 °C
CC1CCNCC1,melting point,5 °C
OCC1CCCCC1,melting point,-43 °C
N#CC(=Cc1ccc(O)cc1)C(=O)O,melting point,250 to 253 °C
S=c1nnc(-c2ccccc2)c(Nc2ccc(Br)cc2)[nH]1,melting point,359 °C
OC(c1ccccc1)(c1ccccc1)C1CCNCC1,melting point,160 °C
CC(Br)C(=O)O (configuration not stated),melting point,25 °C
O=C(C(=S)Nc1ccc(Br)cc1)c1ccccc1,melting point,118 °C
O=C1Nc2ccccc2C1=Nn1c(S)nnc1C(F)(F)F,melting point,300 °C
CC(=O)N1CCC[C@H]1C(=O)O,melting point,118 °C
N#Cc1cnc(N2CCCCC2)nc1N,melting point,220 to 222 °C
c1csc(NC2=NCCN2)n1,melting point,240 to 242 °C
COc1ccc(-c2nnc3n2NC(c2ccccc2)S3)cc1 (configuration not stated),melting point,134 °C
NNc1ncnc2sc3c(c12)CCCC3,melting point,178 to 179 °C
Cc1noc(-c2cccc(Br)c2)n1,melting point,95 to 96 °C
CC(C)(C)OC(=O)N[C@@H](C=O)Cc1ccccc1,melting point,85 to 89 °C
Cc1cc(C)c(CC#N)c(C)c1,melting point,78.5 °C
CC(C)CCCCCOC(=O)c1ccccc1C(=O)OCCCCCC(C)C,melting point,-4 °C
COc1cc(C(=O)OCCCN(C)CCN(C)CCCOC(=O)c2cc(OC)c(OC)c(OC)c2)cc(OC)c1OC,melting point,76 °C
C1CCCCCCCCCCCCC1,melting point,54 °C
CC[C@H](N)P(=O)(O)O,melting point,260 °C
FC(F)(F)C(F)(F)C(F)(F)C(F)(F)C(F)(F)C(F)(F)OC(F)(F)C(F)(F)C(F)(F)C(F)(F)C(F)(F)C(F)(F)F,melting point,-90 °C
N#Cc1ccsc1N,melting point,103 to 106 °C
COc1c(C)c(C)c(OC)c2c1CC2Cl (configuration not stated),melting point,113 °C
CCOC(=O)C=C(C)OCC,melting point,30 °C
CC(=O)O[Si](C)(C)OC(C)=O,melting point,-12.5 °C
CC(Oc1ccc(OC(F)(F)F)cc1)C(=O)O (configuration not stated),melting point,76 to 78 °C
Nc1cc2ccccc2cc1C(=O)O,melting point,216 °C
